From BigSolDB 2.1

Conditions: in water

NCCS(=O)(=O)O
Conditions | solubility (mole fraction)
278.15 K | 0.00667
283.15 K | 0.00809
288.15 K | 0.0101
293.15 K | 0.0121
298.15 K | 0.0141
303.15 K | 0.0172
308.15 K | 0.0202
313.15 K | 0.0232
318.15 K | 0.0264
323.15 K | 0.0318
